Data published in ChEMBL document CHEMBL1150175, “Studies on the activities of tannins and related compounds, X. Effects of caffeetannins and related compounds on arachidonate metabolism in human polymorphonuclear leukocytes” (J Nat Prod, 1987).
Active and inactive are the calls of the source. The calls are words filed in the database; no cut-off is given here.

Legend:
[1] = Inhibition of A23187-induced 5HETE formation in human polymorphonuclear leukocytes; assay type: functional, cell-based
[2] = organism: Homo sapiens; assay: Inhibition of A23187-induced 5HETE formation in human polymorphonuclear leukocytes at 100 to 1000 uM; assay type: functional, cell-based
[3] = organism: Homo sapiens; assay: Inhibition of A23187-induced LTB4 formation in human polymorphonuclear leukocytes at 100 to 1000 uM; assay type: functional, cell-based
[4] = Inhibition of A23187-induced LTB4 formation in human polymorphonuclear leukocytes; assay type: functional, cell-based
[5] = organism: Homo sapiens; assay: Enhancement of PGE2 formation in A-23187-stimulated human polymorphonuclear leukocytes at 100 to 1000 uM; assay type: functional
[6] = Formation of 15HETE in A-23187-stimulated human polymorphonuclear leukocytes at 10 uM relative to control; assay type: functional
[7] = Formation of 15HETE in A-23187-stimulated human polymorphonuclear leukocytes at 1000 uM relative to control; assay type: functional
[8] = Inhibition of A23187-induced 12-hydroxy-5,8,10-heptadecatrienoic acid formation in human polymorphonuclear leukocytes; assay type: functional, cell-based
[9] = Cytotoxicity against human polymorphonuclear leukocytes assessed as occurrence of cell suspension or lactate dehydrogenase release at 1 to 1000 uM
[10] = Formation of 15HETE in A-23187-stimulated human polymorphonuclear leukocytes at 100 uM relative to control; assay type: functional
[11] = organism: Homo sapiens; assay: Inhibition of A23187-induced PGE2 formation in human polymorphonuclear leukocytes at 1 to 100 uM; assay type: functional, cell-based
[12] = organism: Homo sapiens; assay: Inhibition of A23187-induced 12-hydroxy-5,8,10-heptadecatrienoic acid formation in human polymorphonuclear leukocytes at 1 to 100 uM; assay type: functional, cell-based
[13] = Formation of PGE2 in A-23187-stimulated human polymorphonuclear leukocytes at 100 uM relative to control; assay type: functional
[14] = organism: Homo sapiens; assay: Enhancement of PGE2 formation in A-23187-stimulated human polymorphonuclear leukocytes at 100 uM; assay type: functional
[15] = Formation of PGE2 in A-23187-stimulated human polymorphonuclear leukocytes at 10 uM relative to control; assay type: functional
[16] = Formation of PGE2 in A-23187-stimulated human polymorphonuclear leukocytes at 1000 uM relative to control; assay type: functional
[17] = organism: Homo sapiens; assay: Inhibition of A23187-induced 12-hydroxy-5,8,10-heptadecatrienoic acid formation in human polymorphonuclear leukocytes at 1000 uM; assay type: functional, cell-based
[18] = organism: Homo sapiens; assay: Enhancement of 15HETE formation in A-23187-stimulated human polymorphonuclear leukocytes at 10 to 100 uM; assay type: functional
[19] = organism: Homo sapiens; assay: Inhibition of A23187-induced 5HETE formation in human polymorphonuclear leukocytes at 1 to 1000 uM; assay type: functional, cell-based
[20] = organism: Homo sapiens; assay: Enhancement of PGE2 formation in A-23187-stimulated human polymorphonuclear leukocytes at 10 to 100 uM; assay type: functional
[21] = Formation of 12-hydroxy-5,8,10-heptadecatrienoic acid in A-23187-stimulated human polymorphonuclear leukocytes at 1000 uM relative to control; assay type: functional
[22] = Inhibition of A23187-induced 15HETE formation in human polymorphonuclear leukocytes; assay type: functional, cell-based
[23] = organism: Homo sapiens; assay: Inhibition of A23187-induced 12-hydroxy-5,8,10-heptadecatrienoic acid formation in human polymorphonuclear leukocytes at 100 to 1000 uM; assay type: functional, cell-based
[24] = organism: Homo sapiens; assay: Inhibition of A23187-induced 15HETE formation in human polymorphonuclear leukocytes at 100 to 1000 uM; assay type: functional, cell-based

Row | Compound | IC50 ([1]; Homo sapiens, read-out: IC50) [µM] | inhibition [2] | inhibition [3] | IC50 ([4]; Homo sapiens, read-out: IC50) [µM] | Activity [5] | Activity [7] [%] | IC50 [8] [µM] | Activity [9] | Activity [10] [%] | Activity [14] | Activity [16] [%] | also measured
1 | O=C(O)CC(OC(=O)/C=C/c1ccc(O)c(O)c1)C(=O)O (centres undefined) [CAFFEOYLMALIC ACID] | 918 | Active | Active | 548 | Active | 114.8 | 796 | Non-toxic | 141.5 |  |  | Activity [6]: 106.3%
2 | COc1ccc2c(c1)c(CC(=O)O)c(C)n2C(=O)c1ccc(Cl)cc1 |  |  |  |  |  |  |  |  |  |  |  | inhibition [11]: Active; inhibition [12]: Active
3 | O=C(/C=C/c1ccc(O)c(O)c1)O[C@@H]1C[C@](O)(C(=O)O)C[C@@H](O)[C@H]1O [CHLOROGENIC ACID] |  |  |  |  |  |  |  | Non-toxic |  |  |  | 
4 | O=C(/C=C/c1ccc(O)c(O)c1)O[C@H]1[C@H](O)C[C@](O)(C(=O)O)C[C@H]1OC(=O)/C=C/c1ccc(O)c(O)c1 | 601 | Active | Active | 443 |  | 56.9 | 740 | Non-toxic |  | Active | 79.5 | Activity [13]: 155%; Activity [15]: 126%
5 | O=C(O)/C=C/c1ccc(O)c(O)c1 [CAFFEIC ACID] | 276 |  |  | 411 | Active | 96.5 |  | Non-toxic | 153.7 |  |  | inhibition [17]: Active; Activity [18]: Active; inhibition [19]: Active; Activity [20]: Active; IC50 [4]: Dose-dependent effect; Activity [6]: 136.7%
6 | O=C(/C=C/c1ccc(O)c(O)c1)O[C@@H]1[C@H](O)C[C@@](O)(C(=O)O)C[C@H]1OC(=O)/C=C/c1ccc(O)c(O)c1 | 749 | Active | Active | 92.5 |  |  | 80 | Non-toxic |  | Active |  | 
7 | O=C(/C=C/c1ccc(O)c(O)c1)OC(C(=O)O)C(O)C(=O)O (centres undefined) [CAFFEOYLTARTARIC ACID] | 873 | Active | Active | 433 | Active | 55 |  | Non-toxic |  |  |  | Activity [21]: 57.9%
8 | O=C(/C=C/c1ccc(O)c(O)c1)O[C@@H]1C[C@](O)(C(=O)O)C[C@@H](OC(=O)/C=C/c2ccc(O)c(O)c2)[C@H]1O | 666 | Active | Active | 85.9 |  | 50.9 | 902 | Non-toxic | 121.1 | Active | 97.5 | Activity [13]: 160.8%
9 | O=C(/C=C/c1ccc(O)c(O)c1)O[C@H](Cc1ccc(O)c(O)c1)C(=O)O [ROSMARINIC ACID] | 214 |  |  | 55.6 |  |  | 459 | Non-toxic |  | Active | 48 | IC50 [1]: Dose-dependent effect; Activity [15]: 143.4%; IC50 [22]: 455 µM; inhibition [23]: Active; IC50 [4]: Dose-dependent effect; inhibition [24]: Active
